{"source": "paper PMC10349806", "about": "(Nature Communications, 2023)", "key": {"PfCRT variant E207I": {"test_system": "PfCRT variant E207I", "test": "CQ uptake assay, oocytes expressing E207I", "type": "cell-based, Plasmodium falciparum", "protocol": "(§1) Site-directed mutagenesis of PfCRT^Dd2 was performed as described using the megaprimer method with overlap extension[21],[54]. The primer pairs used are listed in Supplementary Table 6. Please note that a codon-optimized and oocyte-adapted version of PfCRT^Dd2 was used[22] (Supplementary Fig. 16). The resulting DNA fragment was cloned into the SP64T expression vector and verified by sequencing.\n(§2) Oocytes were obtained as described previously. Briefly, adult (>2 years old) female X. laevis frogs (NASCO) were anesthetized in a cooled solution of ethyl 3-amino benzoate methanesulfonate (0.1%, w/v), followed by a surgical removal of parts of the ovary. The ovary lobes were carefully dissected and small pieces of oocytes were incubated in Ca^2+-free ND96 buffer (96 mM NaCl, 2 mM KCl, 1 mM MgCl2 buffered with 5 mM HEPES/NaOH, pH 7.5) supplemented with collagenase D (0.1%, w/v; Roche), BSA (0.5%, w/v), and 9 mm Na2HPO4 at 18 °C for 14-16 h while gentle shaking. After incubation, the oocytes were carefully washed several times with ND96 buffer (96 mM NaCl, 2 mM KCl, 1.8 mM CaCl2, 1 mM MgCl2 buffered with 5 mM HEPES/NaOH, pH 7.5) supplemented with 100 mg l^−1 gentamycin). Defolliculated and healthy-looking stage V-VI oocytes were manually selected for RNA microinjection. The RNA was generated as following: The codon-optimized sequences of PfCRT variants were cloned into the pSP64T expression vector. After vector linearization using the restriction endonucleases BamHI or SalI (New England Biolabs), transcription was performed using the in vitro SP6 mMessage mMachine Kit (Ambion)[34]. The obtained RNA was kept at −80 °C and diluted with nuclease-free water to a concentration of 0.6 μg μl^−1. Precision-bore glass capillary tubes (3.5-inch glass capillaries; Drummond Scientific Co.) were pulled on a vertical puller (P-87 Flaming/Brown micropipette puller, Sutter Instrument Co.), graduated, and placed on a microinjector (Nanoject II Auto-Nanoliter Injector, Drummond Scientific Co.). 50 nl of nuclease-free water alone (control oocytes) or 50 nl of 0.6 μg μl^−1 RNA were injected under stereomicroscopic control. Injected oocytes were incubated for 46–72 h at 18 °C with twice-daily buffer changes before usage in experiments.\nDrug uptake assays were performed as described previously[21],[22],[24],[34]. […] The direction of radio-labeled drug transport is here from the mostly acidic extracellular solution (pH 4.5 or 6.0, as indicated) into the oocyte cytosol (pH ∼ 7.2), which corresponds to the efflux of drug from the acidic digestive vacuole (pH 5.2) into the parasite cytoplasm (pH 7.2). The topology of PfCRT in the oolemma is such that both the N- and C-terminus face the extracellular milieu[3],[22]. In the parasite, the N- and C-terminus face the lumen of the digestive vacuole. […] For determination of the amount of drug uptake for each oocyte, the reaction medium was removed and the oocytes were washed three times with 2 ml of ice-cold ND96 buffer. Each oocyte was individually transferred to a scintillation vial containing 5% sodium dodecyl sulfate (200 μl) for lysis. […] Oocytes that were injected with water instead of RNA were analyzed in parallel, representing the uptake of a drug by diffusion and/or endogenous permeation pathways. The resulting value represents the “background“ level of drug accumulation in oocytes (in-depth discussion in[22]). The specific PfCRT-mediated uptake was determined by subtracting the corresponding background value measured in water-injected oocytes from that of PfCRT-expressing oocytes. In all cases, at least three separate experiments were performed on oocytes from different frogs (biological replicate), and for each condition in an experiment, measurements were made from 10 oocytes per treatment. For pH 5.5, 6.0, and 6.5, ND96 was buffered with 5 mM MES/Tris base."}, "PfCRT variant E232A": {"target": "T1, PfCRT variant E232A (Plasmodium falciparum, UniProt Q9N623, A220S/E232A/I356T/K76T/M74I/N326S/N75E/Q271E/R371I)", "T1 sequence (Q9N623 1-424 M74I/N75E/K76T/A220S/E232A/Q271E/N326S/I356T/R371I)": "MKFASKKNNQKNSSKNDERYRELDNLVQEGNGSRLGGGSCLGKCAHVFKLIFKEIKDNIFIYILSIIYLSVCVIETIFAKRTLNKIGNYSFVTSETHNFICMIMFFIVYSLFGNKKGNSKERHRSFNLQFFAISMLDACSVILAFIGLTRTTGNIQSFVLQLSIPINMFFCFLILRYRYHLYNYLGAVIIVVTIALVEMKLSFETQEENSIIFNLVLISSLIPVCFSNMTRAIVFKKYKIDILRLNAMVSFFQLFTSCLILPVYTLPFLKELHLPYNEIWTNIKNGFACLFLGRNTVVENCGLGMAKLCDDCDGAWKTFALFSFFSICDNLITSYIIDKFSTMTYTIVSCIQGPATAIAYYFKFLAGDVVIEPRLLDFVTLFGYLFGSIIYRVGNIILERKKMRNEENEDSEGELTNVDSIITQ", "test": "CQ uptake assay, oocytes expressing E232A", "type": "cell-based", "protocol": "as §1, §2\nDrug uptake assays were performed as described previously[21],[22],[24],[34]. […] The direction of radio-labeled drug transport is here from the mostly acidic extracellular solution (pH 4.5 or 6.0, as indicated) into the oocyte cytosol (pH ∼ 7.2), which corresponds to the efflux of drug from the acidic digestive vacuole (pH 5.2) into the parasite cytoplasm (pH 7.2). The topology of PfCRT in the oolemma is such that both the N- and C-terminus face the extracellular milieu[3],[22]. In the parasite, the N- and C-terminus face the lumen of the digestive vacuole. […] For determination of the amount of drug uptake for each oocyte, the reaction medium was removed and the oocytes were washed three times with 2 ml of ice-cold ND96 buffer. Each oocyte was individually transferred to a scintillation vial containing 5% sodium dodecyl sulfate (200 μl) for lysis. […] Oocytes that were injected with water instead of RNA were analyzed in parallel, representing the uptake of a drug by diffusion and/or endogenous permeation pathways. […] The specific PfCRT-mediated uptake was determined by subtracting the corresponding background value measured in water-injected oocytes from that of PfCRT-expressing oocytes. […]"}, "[1]": {"settings": "E207I, 50 µM CQ, 1 h, mean ± SEM"}}, "note": "Where “and” joins values, the source holds several entries; their conditions need not be identical. Equal values may be shown once.", "data": [{"molecule": "CCN(CC)CCCC(C)Nc1ccnc2cc(Cl)ccc12", "note": "(centres unmarked) [CQ, chloroquine]", "values": [{"measurement": "Activity at pH 4.5", "setting": "PfCRT variant E207I; [1]", "result": "2.05 ± 0.22", "unit": "pmol h-1 oocyte-1"}, {"measurement": "Activity at pH 6.0", "setting": "PfCRT variant E207I; [1]", "result": "2.15 ± 0.11", "unit": "pmol h-1 oocyte-1"}, {"measurement": "R-value", "setting": "PfCRT variant E207I; E207I, CQ transport at pH 4.5 / pH 6.0", "result": "0.95 ± 0.01"}, {"measurement": "E207I transport activity pH 4.5", "setting": "PfCRT variant E207I; pH 4.5, individual replicates, Fig 6b", "result": "2.06 pmol oocyte-1 h-1 and 2.31 pmol oocyte-1 h-1"}, {"measurement": "E207I transport activity pH 6.0", "setting": "PfCRT variant E207I; pH 6.0, individual replicates, Fig 6b", "result": "2.16 pmol oocyte-1 h-1 and 1.90 pmol oocyte-1 h-1 and 2.38 pmol oocyte-1 h-1"}, {"measurement": "E207I R-value", "setting": "PfCRT variant E207I; ratio of activity pH 4.5 / pH 6.0", "result": "0.95 and 0.93 and 0.97"}, {"measurement": "Activity at pH 4.5", "setting": "PfCRT variant E232A; E232A, 50 µM CQ, 1 h, mean ± SEM", "result": "1.07 ± 0.12", "unit": "pmol h-1 oocyte-1"}, {"measurement": "R-value", "setting": "PfCRT variant E232A; E232A, CQ transport at pH 4.5 / pH 6.0", "result": "0.65 ± 0.06"}, {"measurement": "E232A transport activity pH 4.5", "setting": "PfCRT variant E232A; pH 4.5, single replicates, Fig 1d left", "result": "1.05 pmol oocyte-1 h-1 and 1.32 pmol oocyte-1 h-1 and 1.01 pmol oocyte-1 h-1 and 0.62 pmol oocyte-1 h-1 and 1.37 pmol oocyte-1 h-1"}, {"measurement": "E232A R-value", "setting": "PfCRT variant E232A; pH 4.5 vs pH 6.0, Fig 1d left", "result": "0.65 and 0.81 and 0.48 and 0.80"}, {"measurement": "E232A transport activity pH 6.0", "setting": "PfCRT variant E232A; pH 6.0, single replicates, Fig 1d left", "result": "1.62 pmol oocyte-1 h-1 and 1.63 pmol oocyte-1 h-1 and 2.09 pmol oocyte-1 h-1 and 1.28 pmol oocyte-1 h-1 and 1.71 pmol oocyte-1 h-1"}]}]}
